Reference: paper PMC6985722 (Antimicrobial Agents and Chemotherapy, 2020)

Tested on: RSV-A Memphis-37b
Test: RSV human challenge study: viral load in nasal wash by quantitative culture
Format: in vivo
Protocol: Subjects were screened outside the RSV season for eligibility, including measurement of RSV-A Memphis-37b-specific neutralizing antibody titer, ≤90 days before virus challenge. Eligible subjects were admitted to the quarantine unit on day −2 or day −1 and were inoculated intranasally on day 0 with the challenge virus, RSV-A Memphis-37b (4 log10 PFU/ml, given as one 0.4-ml installation per naris), as previously described ([26]). Nasal wash sampling every 12 h for confirmation of RSV infection by qualitative integrated cycler PCR ([12], [19]) began on the morning of day 2. Treatment began 12 h (±1 h) after collection of a nasal wash sample confirming RSV infection or on the evening of day 5 if RSV infection remained unconfirmed by the morning of day 5.
The study comprised two consecutive cohorts. […] Subjects were discharged on day 12 if nasopharyngeal swab samples tested negative by RSV rapid antigen assay (QuickVue RSV test; Quidel, San Diego, CA, USA). If such tests were positive or if a subject remained symptomatic, quarantine was extended to allow further observation. All subjects were evaluated on day 28 (±3 days).
Twice-daily collection of nasal wash samples allowed measurement of viral load via RT-qPCR and quantitative culture. RT-qPCR results were reported as PFUe/ml when the standard curve included in each assay contained a known infectious amount (PFU) of RSV, as described previously ([30]). Subjects reported the occurrence and severity of symptoms three times daily using a 10-item subject symptom diary card as previously reported ([12]) (see Supplemental Methods). Throughout the quarantine period, used tissues were collected and weighed daily, and total nasal mucus weight was recorded. PK assessments were based on venous blood samples. Safety assessments included measurement of vital signs, standard 12-lead ECG recordings, spirometry, a complete physical examination, and a respiratory-directed physical examination. AEs were monitored daily, coded according to the Medical Dictionary for Regulatory Activities Version 20.0, and graded according to the National Cancer Institute Common Terminology Criteria for Adverse Events Version 4.0 (see Supplemental Methods for further details).
The primary efficacy endpoint was AUC for RSV viral load, as measured by RT-qPCR, in nasal wash samples taken twice daily from just before the first dose until discharge (day 12). Viral load data were provided as log10 PFUe/ml; AUC (log10 PFUe/ml · h) was calculated using the trapezoid rule. Secondary efficacy endpoints related to viral load were AUC of RSV viral load, as assessed by quantitative culture, and the following measures, which were each assessed using both RT-qPCR and quantitative culture: peak viral load, time to peak viral load, and time to <1 log10 (for RT-qPCR) or undetectable (for quantitative culture) viral load (considered to occur at the first confirmed undetectable assessment after which no further virus was detected). Secondary efficacy endpoints related to clinical symptoms included AUC total symptom score; peak total symptom score; time to peak total symptom score; and the total weight of nasal mucus produced. Other secondary outcomes were safety, PK, and sequence detection of viral variants (see Supplemental Methods).
The primary efficacy analysis population (the ITT-I analysis set) comprised all randomized subjects who received challenge virus and at least one dose of study drug and met the criterion for laboratory-confirmed RSV infection (presence of detectable RSV). Sensitivity analyses were based on a subset of the ITT-I population who had first detectable RSV infection prior to study drug administration (the ITT-A analysis set) and a fixed time period of 6.5 days (comprising data for all subjects for 6.5 days of evaluation after the first dose, regardless of the staggered commencement of dosing). […]

[1] = 200 mg, ITT-I, fixed time period of 6.5 days
[2] = 350 mg, ITT-A, fixed time period of 6.5 days
[3] = 350 mg, ITT-I, fixed time period of 6.5 days

NCc1ccc2c(c1)nc(CN1C(=O)C3(CC3)c3ccc(F)cc31)n2CCCC(F)(F)F [RV521]
AUC of viral load (quantitative culture), mean (SE) (200 mg, ITT-A): 53.89 (15.47) hours x log10 PFU/mL | AUC of viral load (quantitative culture), reduction in mean vs placebo (200 mg, ITT-A): 71.47% | Peak viral load (quantitative culture), mean (SE) (200 mg, ITT-A): 1.82 (0.41) log10 PFU/mL | Time to peak viral load (quantitative culture), mean (SE) (200 mg, ITT-A): 3.53 (0.84) days | Time to undetectable viral load (quantitative culture), median (Q1, Q3) (200 mg, ITT-A): 3 (2, 3.5) days | AUC of viral load (quantitative culture), mean (SE) (200 mg, ITT-I): 50.98 (14.89) log10 PFU/ml · h | AUC of viral load (quantitative culture), reduction in mean vs that of placebo (200 mg, ITT-I): 68.60% | Peak viral load (quantitative culture), mean (SE) (200 mg, ITT-I): 1.72 (0.40) log10 PFU/ml | Time to peak viral load (quantitative culture), mean (SE) (200 mg, ITT-I): 3.69 (0.81) days | Time to undetectable viral load (quantitative culture), median (Q1, Q3) (200 mg, ITT-I): 3.0 (2.0, 3.5) (n = 11) days | Mean viral load at time of peak viral load in placebo arm (day 2; quantitative culture), mean (SE) (200 mg, ITT-I): 0.88 (0.30) log10 PFU/ml | AUC of viral load (quantitative culture), mean (SE) [1]: 50.98 (14.89) log10 PFU/mL x hours | AUC of viral load (quantitative culture), reduction in mean vs placebo [1]: 68.60% | AUC of viral load (quantitative culture), mean (SE) (350 mg, ITT-A): 43.76 (14.73) hours x log10 PFU/mL | AUC of viral load (quantitative culture), reduction in mean vs placebo (350 mg, ITT-A): 76.83% | Peak viral load (quantitative culture), mean (SE) (350 mg, ITT-A): 1.81 (0.44) log10 PFU/mL | Time to peak viral load (quantitative culture), mean (SE) (350 mg, ITT-A): 3.47 (0.87) days | Time to undetectable viral load (quantitative culture), median (Q1, Q3) (350 mg, ITT-A): 2.5 (2, 2.5) days | AUC of viral load (quantitative culture), mean (SE) [2]: 43.76 (14.73) log10 PFU/mL x hours | AUC of viral load (quantitative culture), reduction in mean vs placebo [2]: 76.83% | AUC of viral load (quantitative culture), mean (SE) (350 mg, ITT-I): 38.29 (13.36) log10 PFU/ml · h | AUC of viral load (quantitative culture), reduction in mean vs that of placebo (350 mg, ITT-I): 76.42% | Peak viral load (quantitative culture), mean (SE) (350 mg, ITT-I): 1.58 (0.41) log10 PFU/ml | Time to peak viral load (quantitative culture), mean (SE) (350 mg, ITT-I): 3.85 (0.80) days | Time to undetectable viral load (quantitative culture), median (Q1, Q3) (350 mg, ITT-I): 2.5 (2.0, 2.5) (n = 9) days | Mean viral load at time of peak viral load in placebo arm (day 2; quantitative culture), mean (SE) (350 mg, ITT-I): 0.71 (0.32) log10 PFU/ml | AUC of viral load (quantitative culture), mean (SE) [3]: 38.29 (13.36) log10 PFU/mL x hours | AUC of viral load (quantitative culture), reduction in mean vs placebo [3]: 76.42%
